Among the data in PubChem BioAssay AID1259407 (Chemical Carcinogenesis Research Information System (CCRIS), 2018) are mutagenic call values, retold here.

The test system of the data set is CCRIS mutagenicity, Ames/micronucleus/aberration tests. Briefly: CCRIS mutagenicity studies.
Where [1] appears, read: Test System: AMES SALMONELLA TYPHIMURIUM, Strain/Indicator: TA98, Metabolic Activation: NONE, Method: PREINCUBATION
The mark [2] stands for this setting: Test System: AMES SALMONELLA TYPHIMURIUM, Strain/Indicator: TA98, Metabolic Activation: RAT LIVER S-9, PHENOBARBITAL AND BETA-NAPHTHOFLAVONE, Method: PREINCUBATION
[3] abbreviates: Test System: AMES SALMONELLA TYPHIMURIUM, Strain/Indicator: TA100, Metabolic Activation: NONE, Method: STANDARD PLATE.
Where [4] appears, read: Test System: AMES SALMONELLA TYPHIMURIUM, Strain/Indicator: TA100, Metabolic Activation: RAT LIVER S-9, PHENOBARBITAL AND BETA-NAPHTHOFLAVONE, Method: PREINCUBATION
The mark [5] stands for this setting: Test System: AMES SALMONELLA TYPHIMURIUM, Strain/Indicator: TA1535, Metabolic Activation: NONE, Method: PREINCUBATION
The mark [6] stands for this setting: Test System: AMES SALMONELLA TYPHIMURIUM, Strain/Indicator: TA1535, Metabolic Activation: RAT LIVER S-9, PHENOBARBITAL AND BETA-NAPHTHOFLAVONE, Method: PREINCUBATION
Where [7] appears, read: Test System: AMES SALMONELLA TYPHIMURIUM, Strain/Indicator: TA1537, Metabolic Activation: NONE, Method: PREINCUBATION
The mark [8] stands for this setting: Test System: AMES SALMONELLA TYPHIMURIUM, Strain/Indicator: TA1537, Metabolic Activation: RAT LIVER S-9, PHENOBARBITAL AND BETA-NAPHTHOFLAVONE, Method: PREINCUBATION
Where [9] appears, read: Test System: E.COLI, Strain/Indicator: WP2UVRA, Metabolic Activation: NONE, Method: PREINCUBATION
[10] abbreviates: Test System: E.COLI, Strain/Indicator: WP2UVRA, Metabolic Activation: RAT LIVER S-9, PHENOBARBITAL AND BETA-NAPHTHOFLAVONE, Method: PREINCUBATION
Setting [11] is: Test System: AMES SALMONELLA TYPHIMURIUM, Strain/Indicator: TA100, Metabolic Activation: NONE, Method: PREINCUBATION

Each structure is given as a SMILES string. The source made the active and inactive calls. The rule behind the calls is not given here.

On to `O=[N+]([O-])c1cc(Cl)ccc1Cl`, for which the mutagenic call was “active; positive (structural changes); authors report equivocal results for ploidy chang” (End Point: IN VITRO CHROMOSOMAL ABERRATIONS, Test System: CHL CELLS, Metabolic Activation: RAT, LIVER, S-9, SODIUM PHENOBARBITAL AND 5,6-BENZOFLAVONE); “inactive; negative” under setting [1]; “inactive; negative” under setting [2]; “inactive; negative” (Test System: AMES SALMONELLA TYPHIMURIUM, Strain/Indicator: TA98, Metabolic Activation: RAT, LIVER, S-9, KANECHLOR 500, Method: PREINCUBATION); “inactive; negative” under setting [3]; “active; positive” under setting [4]. Moreover, the mutagenic call is, setting by setting: (Test System: AMES SALMONELLA TYPHIMURIUM, Strain/Indicator: TA100, Metabolic Activation: RAT, LIVER, S-9, KANECHLOR 500, Method: PREINCUBATION) “active; positive”; under setting [5], “inactive; negative”; under setting [6], “inactive; negative”; under setting [7], “inactive; negative”; under setting [8], “inactive; negative”; (Test System: AMES SALMONELLA TYPHIMURIUM, Strain/Indicator: TA1538, Metabolic Activation: NONE, Method: PREINCUBATION) “inactive; negative”. Moreover, the mutagenic call by setting is: (Test System: AMES SALMONELLA TYPHIMURIUM, Strain/Indicator: TA1538, Metabolic Activation: RAT LIVER S-9, PHENOBARBITAL AND BETA-NAPHTHOFLAVONE, Method: PREINCUBATION) “inactive; negative”; under setting [9], “inactive; negative”; under setting [10], “inactive; negative”.

Regarding `CCCC(=O)O`, the mutagenic call (Test System: AMES SALMONELLA TYPHIMURIUM, Strain/Indicator: TA97, Metabolic Activation: NONE, Method: PREINCUBATION) is “inactive; negative”; the mutagenic call (Test System: AMES SALMONELLA TYPHIMURIUM, Strain/Indicator: TA97, Metabolic Activation: RAT, LIVER, S-9, AROCLOR 1254, Method: PREINCUBATION) was “inactive; negative”; the mutagenic call under setting [1] is “inactive; negative”; the mutagenic call under setting [2] was “inactive; negative”; the mutagenic call under setting [11] was “inactive; negative”; the mutagenic call under setting [4] was “inactive; negative”. The mutagenic call runs as follows: (Test System: AMES SALMONELLA TYPHIMURIUM, Strain/Indicator: TA102, Metabolic Activation: NONE, Method: PREINCUBATION) “inactive; negative”; (Test System: AMES SALMONELLA TYPHIMURIUM, Strain/Indicator: TA102, Metabolic Activation: RAT LIVER S-9, PHENOBARBITAL AND BETA-NAPHTHOFLAVONE, Method: PREINCUBATION) “inactive; negative”; (Test System: AMES SALMONELLA TYPHIMURIUM, Strain/Indicator: TA102, Metabolic Activation: RAT, LIVER, S-9, AROCLOR 1254, Method: PREINCUBATION) “inactive; negative”; (Test System: AMES SALMONELLA TYPHIMURIUM, Strain/Indicator: TA104, Metabolic Activation: NONE, Method: PREINCUBATION) “inactive; negative”; (Test System: AMES SALMONELLA TYPHIMURIUM, Strain/Indicator: TA104, Metabolic Activation: RAT LIVER S-9, PHENOBARBITAL AND BETA-NAPHTHOFLAVONE, Method: PREINCUBATION) “inactive; negative”; under setting [5], “inactive; negative”. Also, the mutagenic call by setting is: under setting [6], “inactive; negative”; under setting [7], “inactive; negative”; under setting [8], “inactive; negative”; (Test System: E.COLI, Strain/Indicator: WP2UVRA/PKM101, Metabolic Activation: NONE, Method: PREINCUBATION) “inactive; negative”; (Test System: E.COLI, Strain/Indicator: WP2UVRA/PKM101, Metabolic Activation: RAT LIVER S-9, PHENOBARBITAL AND BETA-NAPHTHOFLAVONE, Method: PREINCUBATION) “inactive; negative”; under setting [9], “inactive; negative”. Under setting [10], the mutagenic call is “inactive; negative”.

In the case of `O=C1OC(O)C(Cl)=C1Cl` (stereo not drawn), the mutagenic call is “active; positive” under setting [3] and “active; positive” (Test System: UDS RAT HEPATOCYTES, Strain/Indicator: THYMIDINE INCORPORATION, Metabolic Activation: NONE, Method: AUTORADIOGRAPHY).

Turning to `Cc1nc2ccc3ccc4ccc(O)cc4c3c2o1`, the mutagenic call is “active; positive” (Test System: AMES SALMONELLA TYPHIMURIUM, Strain/Indicator: TA98, Metabolic Activation: RAT, LIVER, S-9, AROCLOR 1254, Method: STANDARD PLATE) and “active; positive” (Test System: AMES SALMONELLA TYPHIMURIUM, Strain/Indicator: TA98, Metabolic Activation: RAT, LIVER, S-9, AROCLOR, Method: STANDARD PLATE).

As for `C/C=C\C(=O)O[C@@H]1C[C@H]2O[C@@H]3C=C(C)C(=O)C[C@]3(C)[C@]1(C)[C@]21CO1`, the mutagenic call was “inactive; negative” under setting [1]; “inactive; negative” (Test System: AMES SALMONELLA TYPHIMURIUM, Strain/Indicator: TA98, Metabolic Activation: RAT, LIVER, S-9, AROCLOR 1254, Method: PREINCUBATION); “inactive; negative” under setting [11]; “inactive; negative” (Test System: AMES SALMONELLA TYPHIMURIUM, Strain/Indicator: TA100, Metabolic Activation: RAT, LIVER, S-9, AROCLOR 1254, Method: PREINCUBATION).

As for `O=C(O)c1ccc(O)c2c1C(=O)c1cc(O)cc(O)c1C2=O`, the mutagenic call is, setting by setting: (Test System: AMES SALMONELLA TYPHIMURIUM, Strain/Indicator: TA1537, Metabolic Activation: NONE, Method: STANDARD PLATE) “inactive; negative”; (Test System: AMES SALMONELLA TYPHIMURIUM, Strain/Indicator: TA1537, Metabolic Activation: RAT, LIVER, S-9, PCB, Method: STANDARD PLATE) “inactive; negative”.

As to `CC1CCC(NC(=O)N(CCCl)N=O)CC1` (stereo not drawn), the mutagenic call reads like this: (Test System: AMES SALMONELLA TYPHIMURIUM, Strain/Indicator: G46, Metabolic Activation: NONE) “active; positive”; under setting [3], “active; positive”; (Test System: AMES SALMONELLA TYPHIMURIUM, Strain/Indicator: TA100, Metabolic Activation: RAT, LIVER, S-9, AROCLOR 1254, Method: STANDARD PLATE) “active; positive”; (Test System: AMES SALMONELLA TYPHIMURIUM, Strain/Indicator: TA1535, Metabolic Activation: NONE) “active; positive”.
